Patent publication US11976083B2, “Inhibitors of peptidylarginine deiminases” (Gilead Sciences, Inc., priority 2020, dated 2024)

Target: T1, human PAD4 (Homo sapiens, UniProt Q9UM07)
T1 construct: human PAD4 (NM_012387), A2-P663, was PCR amplified; His-SUMO (N, cleaved yes); made in house; host or cells: E. coli BL21(DE3)
Assay: In vitro PAD4 BAEE biochemical assay
Conditions: BAEE substrate 3 mM, 5 nM PAD4, 2 mM calcium chloride; geometric mean of multiple experiments
Outline: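 Ammonia produced by BAEE deimination (3 mM substrate, 2 h, 25 °C) was read as fluorescent isoindole after o-phthalaldehyde/DTT derivatization, ex 405 nm/em 535 nm. Human PAD4 at 5 nM final, 2 mM calcium, pH 7.6 MOPS; compound preincubated 30 min. IC50s, normalized to BB-Cl-Amidine and DMSO controls, were geometric-mean averaged.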

T1 sequence (Q9UM07 2-663): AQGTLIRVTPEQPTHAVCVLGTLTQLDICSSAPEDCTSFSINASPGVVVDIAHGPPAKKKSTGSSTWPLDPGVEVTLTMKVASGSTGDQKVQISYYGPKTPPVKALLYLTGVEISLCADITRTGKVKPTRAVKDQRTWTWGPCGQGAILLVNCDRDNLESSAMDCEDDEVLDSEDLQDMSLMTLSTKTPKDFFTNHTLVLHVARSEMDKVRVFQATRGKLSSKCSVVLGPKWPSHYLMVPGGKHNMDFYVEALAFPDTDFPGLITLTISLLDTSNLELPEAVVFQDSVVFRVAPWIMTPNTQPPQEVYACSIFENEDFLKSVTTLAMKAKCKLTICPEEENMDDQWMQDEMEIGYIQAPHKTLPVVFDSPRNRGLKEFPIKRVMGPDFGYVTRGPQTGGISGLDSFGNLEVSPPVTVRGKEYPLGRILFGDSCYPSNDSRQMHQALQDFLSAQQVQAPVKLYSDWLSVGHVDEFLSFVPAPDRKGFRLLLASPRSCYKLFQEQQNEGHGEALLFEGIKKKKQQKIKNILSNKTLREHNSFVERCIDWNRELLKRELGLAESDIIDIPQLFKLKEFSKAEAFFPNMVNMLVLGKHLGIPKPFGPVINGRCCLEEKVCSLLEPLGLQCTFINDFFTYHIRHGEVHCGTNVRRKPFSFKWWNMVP

| Compound | IC50 |
| --- | --- |
| C[C@H]1NC(=O)C(C)(C)CCCCCCn2c(-c3nc4cc(C(=O)N5CCC[C@@H](N)C5)c(F)cc4n3C3CC3)cc3ccc1nc32 [Example 169, (11~{R})-17-[5-[(3~{R})-3-aminopiperidine-1-carbonyl]-1-cyclopropyl-6-fluoro-benzimidazol-2-yl]-8,8,11-trimethyl-1,10,19-triazatricyclo[10.5.2.0^{15,18}]nonadeca-12(19),13,15(18),16-tetraen-9-one] | 69 nM |
| CO[C@@H]1CCN(C(=O)c2cc(Cl)c3c(c2)nc(-c2cc4ccc5nc4n2CCCCC[C@@H]2CC2C(=O)N[C@@H]5C)n3C)C[C@@H]1N (some centres unmarked) [Example 505, (2~{R},7~{R})-14-[5-[(3~{S},4~{R})-3-amino-4-methoxy-piperidine-1-carbonyl]-7-chloro-1-methyl-benzimidazol-2-yl]-2-methyl-3,13,19-triazatetracyclo[11.5.2.0^ {5,7}.0^{16,20}]icosa-1(19),14,16(20),17-tetraen-4-one] | 97 nM |
| COc1cc(C(=O)N2CC[C@@H](OC)[C@@H](N)C2)cc2nc(-c3cc4ccc5nc4n3CC(F)(F)CCCC(C)(C)C(=O)N[C@@H]5C)n(C)c12 [Example 587, (10~{R})-16-[5-[(3~{S},4~ {R})-3-amino-4-methoxy-piperidine-1-carbonyl]-7-methoxy-1-methyl-benzimidazol-2-yl]-3,3-difluoro-7,7,10-trimethyl-1,9,18-triazatricyclo[9.5.2.0^ {14,17}]octadeca-11(18),12,14(17), 15-tetraen-8-one] | 163 nM |
| C[C@H]1NC(=O)[C@@H]2C[C@H]2CCCCCn2c(-c3nc4cc(C(=O)N[C@H]5CNCC[C@@H]5F)cc(C(F)(F)F)c4n3C)cc3ccc1nc32 [Example 562, ~{N}-[(3~{S},4~{S})-4-fluoro-3-piperidyl]-1-methyl-2-[(2~{R},5~{R},7~ {R})-2-methyl-4-oxo-3,13,19-triazatetracyclo [11.5.2.0^{5,7}.0^{16,20}]icosa-1(19),14,16(20), 17-tetraen-14-yl]-7-(trifluoromethyl) benzimidazole-5-carboxamide] | 466 nM |
| COc1cc(C(=O)NC2CNC2)cc2nc(-c3cc4ccc5nc4n3CCCCCCC(C)(C)C(=O)N[C@@H]5C)n(C)c12 [Example 177, ~{N}-(azetidin-3-yl)-7-methoxy-1-methyl-2-[(11~{R})-8,8,11-trimethyl-9-oxo-1,10,19-triazatricyclo[10.5.2.0^{15,18}]nonadeca-12(19),13,15(18),16-tetraen-17-yl]benzimidazole-5-carboxamide] | 30500 nM |
| COc1cc(C(=O)N2CCC[C@@H](N)C2)cc2nc(-c3cc4ccc5nc4n3CCCCCCc3ccccc3C(=O)N[C@@H]5C)n(C)c12 [Example 29, (2~{R})-18-[5-[(3~{R})-3-aminopiperidine-1-carbonyl]-7-methoxy-1-methyl-benzimidazol-2-yl]-2-methyl-3,17,23-triazatetracyclo[15.5.2.0^{5,10}.0^{20,24}] tetracosa-1(23),5,7,9,18,20(24),21-heptaen-4-one] | 70 nM |
| COc1cc(C(=O)N[C@H]2CNCC[C@@H]2F)cc2nc(-c3cc4ccc5nc4n3C/C=C(/F)COCCC(=O)N[C@@H]5C)n(C)c12 [Example 619, 2-[(3~{E},11~{R})-4-fluoro-11-methyl-9-oxo-6-oxa-1,10,19-triazatricyclo[10.5.2.0^ {15,18}]nonadeca-3,12(19),13,15(18), 16-pentaen-17-yl]- ~{N}-[(3~{S},4~{S})-4-fluoro-3-piperidyl]-7-methoxy-1-methyl-benzimidazole-5-carboxamide] | 38 nM |
| COc1cc(C(=O)N[C@H]2CNCC[C@@H]2F)cc2nc(-c3cc4ccc5nc4n3CCCCCc3cnccc3C(=O)N[C@@H]5C)n(C)c12 [Example 344, ~{N}-[(3~{S},4~{S})-4-fluoro-3-piperidyl]-7-methoxy-1-methyl-2-[(2~{R})-2-methyl-4-oxo-3,8,16,22-tetrazatetracyclo[14.5.2.0^{5,10}.0^{19,23}]tricosa-1(22),5,7,9,17,19(23),20-heptaen-17-yl]benzimidazole-5-carboxamide] | 51 nM |
| COc1cc(C(=O)N2CCC[C@@H](N)C2)cc2nc(-c3cc4ccc5nc4n3CCCCCCCC(=O)N[C@H]5C(F)(F)F)n(C)c12 (single isomer, unassigned) [Example 236, (11˜{R})-17-[5-[(3˜{R})-3-aminopiperidine-1-carbonyl]-7-methoxy-1-methyl-benzimidazol-2-yl]-11-(trifluoromethyl)-1,10,19-triazatricyclo[10.5.2.0^{15,18}]nonadeca-12(19),13,15(18),16-tetraen-9-one] | 858 nM |

Stronger by IC50, values ahead:

| IC50 | Compound |
| --- | --- |
| 15 nM | COc1cc(C(=O)N2C[C@H](N)CC[C@@H]2C)cc2nc(-c3cc4ccc5nc4n3CC(F)(F)CCC[C@@H]3C[C@H]3C(=O)N[C@@H]5C)n(C)c12 [Example 849, (2~{R},5~{R},7~{R})-14-[5-[(2~{S},5~{R})-5-amino-2-methyl-piperidine-1-carbonyl]-7-methoxy-1-methyl-benzimidazol-2-yl]-11,11-difluoro-2-methyl-3,13,19-triazatetracyclo[11.5.2.0^ {5,7}.0^{16,20}]icosa-1(19), 14,16(20),17-tetraen-4-one] |
| 13 nM | COc1cc(C(=O)N2CCC[C@@H](N)C2)cc2nc(-c3cc4ccc5nc4n3CCCCCCCCC(=O)N[C@@H]5C)n(C)c12 [Example 283, (12~{R})-18-[5-[(3~{R})-3-aminopiperidine-1-carbonyl]-7-methoxy-1-methyl-benzimidazol-2-yl]-12-methyl-1,11,20-triazatricyclo[11.5.2.0^{16,19}]icosa-13(20),14,16(19),17-tetraen-10-one] |
| 26 nM | COc1cc(C(=O)N2C[C@H](N)[C@@H]3CC[C@H]2C3)cc2nc(-c3cc4ccc5nc4n3CCCCC[C@]3(F)C[C@@]3(C)C(=O)N[C@@H]5C)n(C)c12 [Example 916, (2~{R},5~{S},7~{S})-14-[5-[(1~{S},4~{R},5~{R})-4-amino-2-azabicyclo[3.2.1]octane-2-carbonyl]-7-methoxy-1-methyl-benzimidazol-2-yl]-7-fluoro-2,5-dimethyl-3,13,19-triazatetracyclo[11.5.2.0^ {5,7}.0^{16,20}]icosa-1(19),14,16(20),17-tetraen-4-one] |
| 36 nM | COc1cc(C(=O)N2CCC[C@@H](N)C2)cc2nc(-c3cc4ccc5nc4n3C[C@@H]3C[C@H]3CCCCC(=O)N[C@@H]5C)n(C)c12 [Example 269, (3~{R},5~{R},12~{R})-18-[5-[(3~{R})-3-aminopiperidine-1-carbonyl]-7-methoxy-1-methyl-benzimidazol-2-yl]-12-methyl-1,11,20-triazatetracyclo[11.5.2.0^{3,5}.0^{16,19}] icosa-13(20),14,16(19),17-tetraen-10-one] |
| 30 nM | CO[C@@H]1CCN(C(=O)c2cc(F)c3c(c2)nc(-c2cc4ccc5nc4n2CC(F)(F)CCC[C@@H]2C[C@H]2C(=O)N[C@@H]5C)n3[C@@H]2C[C@H]2F)C[C@@H]1N [Example 837, (2~{R},5~{R},7~{R})-14-[5-[(3~{S},4~{R})-3-amino-4-methoxy-piperidine-1-carbonyl]-7-fluoro-1-[(1~{R},2~{R})-2-fluorocyclopropyl]benzimidazol-2-yl]-11,11-difluoro-2-methyl-3,13,19-triazatetracyclo [11.5.2.0^{5,7}.0^{16,20}] icosa-1(19),14,16(20), 17-tetraen-4-one] |
